Data as given in patent publication US4579730A (Hadassah Medical Organization, priority 1983, dated 1986).

Key:
diabetic dog = test: Glucose levels in a diabetic dog after administration of insulin (oral enterocoated capsule; intramuscular comparison); assay type: in vivo; settings: 0.5 u/kg intramuscular injection
blood glucose levels = settings: insulin mixed with bile salts, through the rectum, dose of 48 μ/kg; cited from earlier work
[1] = Function of sodium cholate as bile acid carrier of insulin and protease inhibitor agent

In the case of Insulin, the Glucose (diabetic dog; 0 min) is reported as 28.7 mm, the Glucose (diabetic dog; 10 min) is reported as 23.3 mm and the Glucose (diabetic dog; 20 min) is reported as 21.5 mm. For the same molecule, the Glucose (diabetic dog; 30 min) was 19.9 mm, the Glucose (diabetic dog; 45 min) was 15.6 mm and the Glucose (diabetic dog; 60 min) was 12.9 mm. For the same molecule, the Glucose (diabetic dog; 75 min) was 10.9 mm, the Glucose (diabetic dog; 90 min) was 8.5 mm and the Glucose (diabetic dog; 120 min) was 6.5 mm. For the same molecule, the Glucose (diabetic dog; 150 min) was 6.4 mm, the Glucose (diabetic dog; 180 min) was 6.5 mm and the “reduction of blood glucose levels” value (blood glucose levels) was “approximately 50%”.
In the case of `C[C@H](CCC(=O)[O-])[C@H]1CC[C@H]2[C@@H]3[C@H](O)C[C@@H]4C[C@H](O)CC[C@]4(C)[C@H]3C[C@H](O)[C@]12C.[Na+]` [sodium cholate], the “function as bile acid carrier of the insulin and protease inhibitor agent” value [1] is reported as “can simultaneously function both as the bile acid carrier of the insulin and the protease inhibitor agent”.
